Measurements reported in patent US20250296922A1, “POLYSUBSTITUTED PYRROLIDINE DERIVATIVE, PREPARATION METHOD THEREFOR AND USE THEREOF” (SHANGHAI WENNAI THERAPEUTICS CO LTD, priority 2023, published 2025).

Tests used:
Assay type in all cases: in vitro ADME
[1] = Stability of the compound in liver microsomes (human); conditions: 1 μM compound, 0.5 mg protein/mL; for Human liver microsomes T½ / half-life at 1 μM: 37° C.; for half-life at 1 μM: human, liver microsomes, read-out: Human liver microsomes T½
Protocol: 2.1.1. working solution: 5 μL of test or control compound stock solution (10 mM DMSO solution) was diluted with 495 μL of acetonitrile (ACN) to obtain an intermediate stock solution (100 μM, 99% ACN).
2.2.2 Preparation procedure: An appropriate amount of NADPH powder was weighed and diluted with 10 mM MgCl2 buffer (working solution concentration: 10 mM; final reaction system concentration: 1 mM).
2.3.2 Preparation procedure: The appropriate concentration of liver microsomal working solution was prepared in 100 mM potassium phosphate buffer;
Acetonitrile (ACN) solution at 4° C. containing 200 ng/mL of Tolbutamide and 200 ng/ml of labetalol as internal standards 2.5. Operation steps:
2.5.2. Diluting liver microsomes with 100 mM potassium phosphate buffer to a concentration of 0.56 mg/mL.
2.5.3. Transferring 445 μL of liver microsomal working solution (0.56 mg/mL) to pre-heated incubation plates T60 and NCF60, and then pre-heating the incubation plates T60 and NCF60 for 10 minutes at 37° C. with shaking. Transferring 54 μL of liver microsomes to each well of the blank plate, adding 6 μL of NAPDH coenzyme solution to the blank plate, and finally transferring 180 μL of termination solution to the blank plate.
2.5.4 Adding 5 μL of compound working solution (100 μM) to the incubation plates T60 and NCF60 containing liver microsomes and mixing three times.
2.5.5. Adding 50 μL of buffer to the NCF60 plate and mixing three times, starting the timer and incubating at 37° C. for 60 min with the plate shaking.
2.5.6. Adding 180 μL of quenching solution and 6 μL of NAPDH coenzyme working solution sequentially to quenching plate TO, making sure that the plate was cold to prevent volatilization of the incubation solution.
2.5.7. For plate T60, mixing well three times and immediately transferring 54 μL of mixing solution (0-min time point) to quenching plate TO, then adding 44 μL of NAPDH coenzyme working solution to incubation plate T60. Starting the timer:
2.5.8. At the 5, 15, 30, 45 and 60 minute time points, adding 180 μL of quenching solution to the quenching plate and transferring 60 μL of reaction solution from the T60 plate to the quenching plate at each time point.
2.5.9. For NCF60 plates, mixing well and transferring 60 μL of reaction solution from the NCF60 incubating solution to a quenching plate containing 180 μL of quenching solution at 60th minute.
2.5.10. All plates were mixed on a shaker for 10 min and then centrifuged at 4000 rpm at 4° C. for 20 min.
2.5.11. Transferring 80 μL of supernatant to 240 μL of HPLC water and mixing on a
2.6.1. Calculating t1/2 and Clint (mic) values based on first-order elimination kinetics: […]

[2] = target: CYP2D6 (Homo sapiens (Human), UniProt P10635); test: Human liver microsomal CYP inhibition test, CYP2D6; conditions: human liver microsomes 0.2 mg/mL; substrate Dextromethorphan
Sequence of CYP2D6 (P10635 whole entry): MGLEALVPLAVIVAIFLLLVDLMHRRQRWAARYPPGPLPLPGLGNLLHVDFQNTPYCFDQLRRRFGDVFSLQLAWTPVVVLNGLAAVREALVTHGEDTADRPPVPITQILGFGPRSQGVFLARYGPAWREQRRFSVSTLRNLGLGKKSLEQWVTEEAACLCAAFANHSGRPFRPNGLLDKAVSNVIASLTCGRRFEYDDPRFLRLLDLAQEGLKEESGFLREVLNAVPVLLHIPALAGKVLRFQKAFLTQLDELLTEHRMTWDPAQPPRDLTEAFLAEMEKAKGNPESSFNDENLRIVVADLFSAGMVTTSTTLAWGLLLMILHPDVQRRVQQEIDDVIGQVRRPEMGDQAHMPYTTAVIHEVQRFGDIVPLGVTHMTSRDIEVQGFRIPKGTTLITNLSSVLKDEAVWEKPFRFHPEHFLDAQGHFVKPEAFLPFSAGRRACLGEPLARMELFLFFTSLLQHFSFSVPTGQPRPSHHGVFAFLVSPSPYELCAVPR
Protocol: (§1) 3.1 Buffer solutions: (1) potassium phosphate 100 mM; (2) magnesium chloride, 33 mM;
(§2) 3.2.3 Reservoir for compounds to be tested: Dissolving the compounds to be tested in DMSO to form a 10 mM DMSO solution.
3.4.1 Preparation of human liver microsomal working solution (1.27×) (final concentration: 0.2 mg/mL)
(§3) 3.5.3 Adding 20 μL of substrate solution to the appropriate wells and 20 μL of potassium phosphate buffer to the blank wells;
(§4) 3.5.4 Adding 2 μL of different concentrations of target compounds (final concentrations from 0.05 μM to 50 μM, 7 concentrations in total) or standard inhibitors to each well, with 2 μL of methanol solution in the non-inhibitor and blank wells;
(§5) 3.5.5 Adding 1.012 mL of liver microsomes to 78.988 mL of potassium phosphate buffer, then adding 158 μL of liver microsomes solution to all wells; preheating the well plate for 10 minutes in a 37° C. water bath;
(§6) 3.5.6 Weighing 129.1 mg NADPH (purchased from SyncoZymes Co. Ltd.) and adding to 15.0 mL of 33 Mm MgCl2 solution to give a 10 mM concentration, adding 20 μL to each well;
(§7) 3.5.7 Mixing and incubating the well plate in a 37° C. water bath for 10 minutes, then adding 400 μL of cold termination solution at the appropriate time point;
(§8) 3.5.8 Centrifuging the sample at 4000 rpm for 20 minutes to precipitate the protein. Transferring 200 μL of supernatant to 100 μL of HPLC water and shaking for 10 minutes. The samples were analyzed by LC/MS/MS;
(§9) Percentage inhibition was plotted for blank control and different concentrations of target compounds by using XL fitting or SigmaPlot and the data were analyzed by non-linear regression. IC50 values were determined by using either 3-parameter or 4-parameter logistic equations.

[3] = target: CYP2C19 (Homo sapiens (Human), UniProt P33261); test: Human liver microsomal CYP inhibition test, CYP2C19; conditions: human liver microsomes 0.2 mg/mL; substrate S-mephenytoin
Sequence of CYP2C19 (P33261 whole entry): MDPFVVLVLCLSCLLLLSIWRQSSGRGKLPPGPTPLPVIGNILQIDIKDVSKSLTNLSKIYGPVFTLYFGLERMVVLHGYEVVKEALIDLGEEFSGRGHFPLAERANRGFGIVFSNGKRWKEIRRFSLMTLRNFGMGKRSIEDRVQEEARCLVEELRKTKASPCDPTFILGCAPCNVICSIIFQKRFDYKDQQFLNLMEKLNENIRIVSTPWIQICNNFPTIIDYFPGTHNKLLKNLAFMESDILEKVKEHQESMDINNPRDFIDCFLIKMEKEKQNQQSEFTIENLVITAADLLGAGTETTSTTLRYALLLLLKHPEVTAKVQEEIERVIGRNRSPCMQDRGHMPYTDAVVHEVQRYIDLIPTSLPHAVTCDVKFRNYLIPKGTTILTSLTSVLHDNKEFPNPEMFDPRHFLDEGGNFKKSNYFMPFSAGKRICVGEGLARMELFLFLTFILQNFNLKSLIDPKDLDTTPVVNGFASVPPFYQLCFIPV
Protocol: as §1, §2, §3, §4, §5, §6, §7, §8, §9

Molecule | Human liver microsomes T½ [1] [h] | Human liver microsomes Residual (T = 60 min) [1] [%] | IC50 [2] [µM] | half-life at 1 μM [1] [h] | IC50 [3] [µM]
4-((2R,3S,4S,5R)-3-(3,4-difluoro-2-(methoxy-d3)phenyl)-4,5-dimethyl-5-(trifluoromethyl) pyrrolidine-2-carboxamido)pyridinamide [Compound 11] | 1.59 | 60.1 | > 50 |  | 
COc1c([C@H]2[C@H](C(=O)Nc3ccc[n+]([O-])c3)N[C@@](C)(C(F)(F)F)[C@H]2C)ccc(F)c1F [Compound 7, 3-((2R,3S,4S,5R)-3-(3,4-difluoro-2-methoxyphenyl)-4,5-dimethyl-5-(trifluoromethyl)pyrrolidine-2-carboxamido)pyridine 1-oxide] |  | 74.8 | > 50 | > 2.42 | 2.13
COc1c([C@H]2[C@H](C(=O)Nc3cccc(S(N)(=O)=O)c3)N[C@@](C)(C(F)(F)F)[C@H]2C)ccc(F)c1F [Compound 8, (2R,3S,4S,5R)-3-(3,4-difluoro-2-methoxyphenyl)-4,5-dimethyl-aza-(3-aminosulfonylphenyl)-5-(trifluoromethyl) pyrrolidine-2-carboxamide] | >2.42 | 80.3 | 41.6 |  | 29
COc1c([C@H]2[C@H](C(=O)Nc3ccnc(C(N)=O)c3)O[C@@](C)(C(F)(F)F)[C@H]2C)ccc(F)c1F [VX-548, reference compound] |  | 70.9 | > 50 | 2.2 | 3.74
